Laboratory results reported in PMC7997574, “Lead Optimization of Benzoxazolone Carboxamides as Orally Bioavailable and CNS Penetrant Acid Ceramidase Inhibitors” (Journal of Medicinal Chemistry, 2020).
Converted amounts (≈) assume the structure as drawn. Structures can show the parent of a compound that is named as a salt. Where two headings read alike, the source gives them in different places.

Tests used:
AC = target: T1, AC (Homo sapiens, UniProt Q13510); assay: Fluorogenic hAC assay on hAC-enriched lysate of HEK293 cells; assay type: biochemical; set-up: expressed in transfected cells; conditions: for fold more potent than 23e (hAC): vs 23e hAC IC50 = 0.363 μM
T1 sequence (Q13510 22-395): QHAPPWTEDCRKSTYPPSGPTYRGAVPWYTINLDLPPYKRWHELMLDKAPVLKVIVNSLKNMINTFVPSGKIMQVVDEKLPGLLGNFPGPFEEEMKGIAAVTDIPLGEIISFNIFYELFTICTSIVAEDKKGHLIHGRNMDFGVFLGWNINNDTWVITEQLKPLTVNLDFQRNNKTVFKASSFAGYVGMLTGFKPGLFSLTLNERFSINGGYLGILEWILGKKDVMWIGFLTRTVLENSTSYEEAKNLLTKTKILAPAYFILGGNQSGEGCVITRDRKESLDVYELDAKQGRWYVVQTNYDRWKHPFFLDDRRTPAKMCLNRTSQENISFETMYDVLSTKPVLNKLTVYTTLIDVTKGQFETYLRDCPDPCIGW
Description: HEK293 cells stably expressing hAC were grown in Dulbecco’s modified Eagle medium (DMEM) containing 10% FBS, 1% glutamine, 1 mM sodium pyruvate, and 500 μg mL^–1 G418. Cells were harvested, and pellets were stored at −80 °C until lysosomal-enriched lysate preparation. Cells were suspended in 20 mM Tris HCl (pH 7.5) with 0.32 M sucrose, sonicated, and centrifuged at 800 × g for 30 min at 4 °C. Supernatants were then centrifuged at 12000 × g for 30 min at 4 °C. Pellets were resuspended in PBS (pH 7.4) and subjected to three freeze–thaw cycles at −80 °C. The suspension was finally centrifuged at 105000 × g for 1 h at 4 °C, and protein concentration was measured in the supernatant with the bicinchoninic acid based protein assay. This hAC-enriched preparation allowed us to further optimize the enzymatic assay and to use small amounts of lysate (2 μg per well) at a 5 μM substrate (Rbm14–12) around its KM (KM = 5.0 μM).
The assay was performed in Optiplate 96-well black plates, with each reaction well containing a mixture of 25 mM NaOAc buffer (pH 4.5) and a fixed amount of protein (2 μg) in a volume of 85 μL. After 10 min of preincubation with test compounds (diluted 20× from DMSO stock solutions at different concentrations), the fluorogenic probe was added (diluted 40× from EtOH stock solution, final concentration 5 μM). After 3 h of incubation at 37 °C, reactions were stopped with 50 μL of MeOH and 100 μL of a 2.5 mg mL^–1 NaIO4 fresh solution in 100 mM glycine/NaOH buffer (pH 10.6). The plates were further incubated for 2 h at 37 °C in the dark, and fluorescence intensities were measured at excitation/emission wavelengths of 355/460 nm. Negative control samples consisted of the same incubation mixture in the absence of protein-enriched extracts. Data were plotted as a function of compound concentrations. IC50 values were calculated by nonlinear regression analysis using GraphPad Prism 5 (GraphPad Software Inc., CA, USA) applying a standard slope curve fitting. The reported IC50 values are the mean of at least three independent experiments performed in three technical replicates.

[1] = Chemical stability assay in PBS pH 7.4; assay type: physicochemical; conditions: phosphate-buffered saline, read-out: chemical stability t1/2
Description: Chemical stability of selected compounds was evaluated under physiological pH conditions (0.01 M phosphate-buffered saline, pH 7.4) for up to 8 h. The buffer was added with 10% MeCN. Stock solutions of each compound (10 mM) were freshly prepared in MeCN. Each compound was incubated at a final concentration of 1 μM in preheated buffer (37 °C). The sample solutions were divided into aliquots in glass vials (preheated at 37 °C) for each time point. The samples were maintained at 37 °C in the UPLC/MS autosampler during the study (no shaking). A reference solution of each compound (final concentration: 1 μM) in preheated MeCN was prepared from the stock solutions and maintained at 37 °C in the UPLC/MS autosampler during the study. For each time point, the samples were analyzed directly by LC/MS without any further sample preparation. The samples were analyzed by integrating the corresponding MRM peak areas. The relative compound concentration was calculated by dividing the peak area at each time point by the peak area at t = 0 min. The reference solution was analyzed at the beginning (t = 0 min) and at the end of the study (t = 8 h). The apparent half-life (t1/2) of the disappearance of the compound was calculated using the best fitting equation by GraphPad Prism (GraphPad Software, Inc., USA). The analyses were performed on a Waters ACQUITY UPLC/MS TQD system consisting of a triple quadrupole detector (TQD) MS equipped with an ESI interface and a photodiode array detector. The analyses were run on an ACQUITY UPLC BEH C18 1.7 μm 2.1 × 50 mm column with a VanGuard BEH C18 1.7 μm preolumn at 40 °C. For each compound, the appropriate mobile phase was chosen. ESI was applied in positive mode. Values are the mean of at least two independent experiments performed in two technical replicates.

[2] = In vitro plasma stability study; assay type: in vitro ADME; conditions: mouse plasma
Description: Freshly prepared 10 mM MeCN stock solution of test compound was diluted 50-fold with DMSO/H2O (1:1) and incubated at 37 °C for 2 h with mouse plasma added in 5% DMSO (preheated at 37 °C for 10 min). The final concentration was 2 μM. At each time point (0, 5, 15, 30, 60, and 120 min), 50 μL of incubation mixture was diluted with 200 μL of cold MeCN spiked with 200 nM internal standard followed by centrifugation at 3300 × g for 20 min. The supernatant was further diluted with H2O (1:1) for analysis. The concentration of test compound was quantified by LC/MS/MS on a Waters ACQUITY UPLC/MS TQD system consisting of a TQD MS equipped with an ESI interface. The analyses were run on an ACQUITY UPLC BEH C18 (50 × 2.1 mm ID, particle size 1.7 μm) with a VanGuard BEH C18 precolumn (5 × 2.1 mm ID, particle size 1.7 μm) at 40 °C. For each compound, the appropriate mobile phase was chosen. ESI was applied in positive mode. The response factors, calculated on the basis of the internal standard peak area, were plotted over time. When possible, response vs time profiles were fitted with Prism (GraphPad Software, Inc., USA) to estimate compound t1/2 in plasma. Values are the mean of at least two independent experiments performed in two technical replicates.

[3] = Aqueous kinetic solubility assay; assay type: physicochemical; conditions: PBS, pH 7.4
Description: The aqueous kinetic solubility was determined from a 10 mM MeCN stock solution of test compound in Phosphate-Buffered Saline (PBS) at pH 7.4. The study was performed by incubation of an aliquot of 10 mM MeCN stock solution in PBS (pH 7.4) at a target concentration of 250 μM. The incubation was carried out under shaking at 25 °C for 1 h followed by centrifugation at 21100 × g for 30 min. The supernatant was analyzed by UPLC/MS for the quantification of the dissolved compound (in μM) by UV at a specific wavelength (215 nm). […] The UPLC/MS analyses were performed on a Waters ACQUITY UPLC/MS system consisting of a single quadrupole detector (SQD) Mass Spectrometer (MS) equipped with an Electrospray Ionization (ESI) interface and a Photodiode Array Detector (PDA). The PDA range was 210–400 nm. ESI in positive mode was used in the mass scan range of 100–650 Da. The analyses were run on an ACQUITY UPLC BEH C18 column (50 × 2.1 mm ID, particle size 1.7 μm) with a VanGuard BEH C18 precolumn (5 × 2.1 mm ID, particle size 1.7 μm), using 10 mM NH4OAc in H2O at pH 5 adjusted with AcOH (A) and 10 mM NH4OAc in MeCN/H2O (95:5) at pH 5 (B) as the mobile phase. Values are reported as mean values of ≥2 experiments performed.

[4] = In vitro microsomal stability study; assay type: in vitro ADME; conditions: pH 7.4; mouse liver microsomes; read-out: m-LM t1/2
Description: Freshly prepared 10 mM MeCN stock solution of test compound was preincubated at 37 °C for 15 min with mouse liver microsomes added in 0.1 M Tris HCl buffer (pH 7.4). The final concentration was 4.6 μM. After preincubation, the cofactors (NADPH, G6P, G6PDH, and MgCl2 predissolved in 0.1 M Tris HCl) were added to the incubation mixture, and the incubation was continued at 37 °C for 1 h. At each time point (0, 5, 15, 30, and 60 min), 30 μL of incubation mixture was diluted with 200 μL of cold MeCN spiked with 200 nM internal standard followed by centrifugation at 3300 × g for 15 min. The supernatant was further diluted with H2O (1:1) for analysis. The concentration of the test compound was quantified by LC/MS/MS on a Waters ACQUITY UPLC/MS TQD system consisting of a TQD MS equipped with an ESI interface. The analyses were run on an ACQUITY UPLC BEH C18 (50 × 2.1 mm ID, particle size 1.7 μm) with a VanGuard BEH C18 precolumn (5 × 2.1 mm ID, particle size 1.7 μm) at 40 °C. For each compound, the appropriate mobile phase was chosen. ESI was applied in positive mode. The percentage of test compound remaining at each time point relative to t = 0 was calculated. t1/2 was determined by a one-phase decay equation using a nonlinear regression of compound concentration vs time. Values are the mean of at least two independent experiments performed in two technical replicates.

[5] = read-out: mouse plasma stability t1/2
[6] = supplementary csv, read-out: hAC, IC50
[7] = hAC expressed in HEK-293 cells, read-out: hAC IC50 (μM)±SD

Row | SMILES | solubility at 1 h [3] [µM] | IC50 (AC; [7]) [µM] | half-life at 2 µM ([2]; read-out: m-plasma t1/2) [min] | half-life at 1 h, 4.6 µM [4] [min] | also measured
1 | O=C(NCCCCc1ccccc1)n1c(=O)oc2ccncc21 [8a, 2-Oxo-N-(4-phenylbutyl)oxazolo[4,5-c]pyridine-3-carboxamide] | – | – | – | – | IC50 (AC; read-out: hAC IC50): 0.006 µM; half-life at 1 μM ([1]; PBS, pH 7.4): < 15 min
2 | O=C(NCCCCc1ccccc1)n1c(=O)oc2cnccc21 [8b, 2-Oxo-N-(4-phenylbutyl)oxazolo[5,4-c]pyridine-1-carboxamide] | – | – | – | – | IC50 (AC; read-out: hAC IC50): 0.003 µM; half-life at 1 μM ([1]; PBS, pH 7.4): < 15 min
3 | O=C(NCCCCc1ccccc1)n1c2c(oc1=O)CCNC2 [12b, 2-Oxo-N-(4-phenylbutyl)-4,5,6,7-tetrahydrooxazolo[4,5-c]pyridine-3-carboxamide Hydrochloride] | 82 | – | – | – | half-life at 2 μM [2, 5]: > 120 min; IC50 (AC; [6]): 0.247 ± 0.156 µM; half-life at 1 μM ([1]; PBS at pH 7.4): > 480 min
4 | O=C(NCCCCc1ccccc1)n1c2c(oc1=O)CNCC2 [17b, 2-Oxo-N-(4-phenylbutyl)-4,5,6,7-tetrahydrooxazolo[5,4-c]pyridine-1-carboxamide Hydrochloride] | 230 | – | – | – | half-life at 2 μM [2, 5]: > 120 min; IC50 (AC; [6]): 0.341 ± 0.012 µM; half-life at 1 μM ([1]; PBS at pH 7.4): > 480 min
5 | CCN1CCN(c2ccc3c(c2)oc(=O)n3C(=O)NCCCCc2ccccc2)CC1 [23g, 6-(4-Ethylpiperazin-1-yl)-2-oxo-N-(4-phenylbutyl)-1,3-benzoxazole-3-carboxamide] | < 1 | 0.056 ± 0.006 | – | – | half-life at 2 μM ([2]; read-out: m-plasma t1/2): < 5 min; fold more potent than 23e (hAC) (AC): ~7 fold; half-life at 4.6 μM [4]: < 5 min
6 | CC(C)CNC(=O)n1c(=O)oc2ccc(C3CCN(C)CC3)cc21 [24c, N-Isobutyl-5-(1-methyl-4-piperidyl)-2-oxo-1,3-benzoxazole-3-carboxamide] | 60 (≈ 19.9 µg/mL) | 0.295 ± 0.06 | 30 | 40 | –
7 | CC(C)CNC(=O)n1c(=O)oc2c(C3CCN(C)CC3)cccc21 [compound 25, N-Isobutyl-7-(1-methyl-4-piperidyl)-2-oxo-1,3-benzoxazole-3-carboxamide] | 230 (≈ 76.2 µg/mL) | 0.535 ± 0.073 | 40 | 30 | –

More lines, main results first:

Row | solubility at 1 h [3] [µM] | IC50 (AC; [7]) [µM] | half-life at 2 µM ([2]; read-out: m-plasma t1/2) [min] | half-life at 1 h, 4.6 µM [4] [min] | SMILES | also measured
8 | < 1 | 0.092 ± 0.026 | 20 | 30 | CN1CCN(c2ccc3c(c2)oc(=O)n3C(=O)NCCCCc2ccccc2)CC1=O [23j, 6-(4-Methyl-3-oxo-piperazin-1-yl)-2-oxo-N-(4-phenylbutyl)-1,3-benzoxazole-3-carboxamide] | –
9 | 20 (≈ 8.45 µg/mL) | 0.052 ± 0.04 | 20 | – | CN1CCN(c2ccc3c(c2)oc(=O)n3C(=O)NCCCCc2ccccc2)C(=O)C1 [23k, 6-(4-Methyl-2-oxo-piperazin-1-yl)-2-oxo-N-(4-phenylbutyl)-1,3-benzoxazole-3-carboxamide] | fold more potent than 23e (hAC) (AC): ~7 fold; half-life at 4.6 μM [4]: < 5 min
